This test concerns the target T1, SmcR (Vibrio vulnificus, UniProt Q9L8G8).
T1 construct: purified SmcR (dimer); SeMet-substituted SmcR for the crystals
Kind of test: ITC (two-sequential binding model; second Kd =[…]) and […] Å crystal structure of the soaked complex.

As a reminder, the Kd is a measure of binding affinity in units of concentration.

T1 sequence (Q9L8G8 entry or part of it): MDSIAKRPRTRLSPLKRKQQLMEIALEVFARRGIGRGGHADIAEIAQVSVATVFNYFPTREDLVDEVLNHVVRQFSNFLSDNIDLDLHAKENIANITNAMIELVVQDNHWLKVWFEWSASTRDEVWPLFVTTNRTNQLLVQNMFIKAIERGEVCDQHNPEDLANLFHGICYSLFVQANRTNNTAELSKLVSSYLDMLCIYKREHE

The compound `O=S(=O)(c1ccc(Br)s1)n1cccn1` [377B6, 1-(5-bromothiophene-2-sulfonyl)-1H-pyrazole] returned a Kd of 470 nM.

The values are drawn from PMC5790914, “QStatin, a Selective Inhibitor of Quorum Sensing in Vibrio Species” (mBio, 2018).
